From US20200123620A1, “MiRNA-574-5p AS A BIOMARKER FOR STRATIFICATION OF PROSTAGLANDIN E-DEPENDENT TUMORS” (priority 2017, published 2020)

What was measured:
Assay type in all cases: cell-based, human
[1] = system: COX-2; assay: COX-2 expression in transfected A549 cells (qRT-PCR, Western blot); details: mRNA and protein
Method: CUGBP1 and GW182 were transiently depleted using siRNA oligonucleotides. 24 h prior to transfection, A549 cells were seeded at a density of 5×10^5 cells/well in a 6-well plate. 20 pmol/μl siRNA oligonucleotides were transfected using Lipofectamine 2000N (Invitrogen, Karlsruhe, GER) according to manufacturer's instructions. For GW182 knockdown, MISSION® siRNA SAS1_Hs01_00244664 (Sigma-Aldrich, Darmstadt. GER) were used, respectively. For CUGBP1 knockdown a previously published siRNA (5′-GCUGUUUAUUGGUAUGAUU-3′; SEQ ID NO:5) was used for our experiments. As control, a siRNA with an unspecific sequence was used (5′-UCUCUCACAACGGGCAUUU-3′; SEQ ID NO: 6). […] The efficiency of CUGBP1 and GW182 knockdown was determined by qRT-PCR, Western blot and immunofluorescence staining.
(§1) 1 μg of DNase-treated RNA was used for reverse transcription using High-Capacity RNA-to-cDNA Kit (Applied Biosystems, ThermoFisher Scientific, Waltham, USA) according to manufacturer's instructions. […] 1 μl cDNA (1:2 diluted) was used per reaction. β-Actin was used as endogenous control to normalize variations in cDNA quantities in different samples.
(§2) To obtain a whole cell lysate, A549 cells were lysed in T-PER™ tissue protein extraction reagent (Life Technologies, ThermoFisher Scientific, Waltham, USA) for 30 min at 4° C. […] The protein content was determined by Bradford assay (BioRad Laboratories, Hercules, USA). […]

[2] = system: mPGES-1; assay: mPGES-1 expression in transfected A549 cells (qRT-PCR, Western blot); details: IL-1β 24 h, then 24 h stimulus-free medium
Method: CUGBP1 and GW182 were transiently depleted using siRNA oligonucleotides. 24 h prior to transfection, A549 cells were seeded at a density of 5×10^5 cells/well in a 6-well plate. 20 pmol/μl siRNA oligonucleotides were transfected using Lipofectamine 2000N (Invitrogen, Karlsruhe, GER) according to manufacturer's instructions. For GW182 knockdown, MISSION® siRNA SAS1_Hs01_00244664 (Sigma-Aldrich, Darmstadt. GER) were used, respectively. For CUGBP1 knockdown a previously published siRNA (5′-GCUGUUUAUUGGUAUGAUU-3′; SEQ ID NO:5) was used for our experiments. As control, a siRNA with an unspecific sequence was used (5′-UCUCUCACAACGGGCAUUU-3′; SEQ ID NO: 6). Cells were harvested 24 h and 48 h after transfection. The efficiency of CUGBP1 and GW182 knockdown was determined by qRT-PCR, Western blot and immunofluorescence staining.
24 h prior to transfection, A549 cells were seeded at a density of 5×10^5 per well in a 6-well plate. 20 pmol/μl miRIDIAN miR-574-5p mimics (HM10794, Sigma-Aldrich, Darmstadt, GER) or negative control (HMC0002, Sigma-Aldrich, Darmstadt, GER) were transfected using Lipofectamine 2000® according to the manufacturer's instructions. In the same way, the A549 cells were transfected with 40 pmol/μl miR-574-5p-LNA™ inhibitor (4101451-001) or negative control (199006-001, Exiqon, Kopenhagen, DEN) for the knockdown of miR-574-5p. The transfection efficiency was determined by qRT-PCR.
as §1, §2

[3] = system: A549 cells; assay: MTT cell proliferation assay; details: data not shown
Method: For the detection of viable cells, an MTT (3-(4,5-dimethylthiazol-2-yl)-2,5-diphenyltetrazolium bromide) tetrazolium (Carl Roth, Karlsruhe, GER) reduction assay was performed. 24 h prior transfection, A549 cells were seeded at a density of 1×10^4 cells per well in 96-well plates. For the MTT reduction assay, 20 μl of 5 mg/ml MTT (in PBS) was added to the cells in culture and so incubated for 4 h. The medium was removed and 100 μl DMSO (Carl Roth, Karlsruhe, GER) was added. The quantity of formazan was measured by recording changes in the absorbance at 570 nm using a plate reading spectrophotometer. As a reference the wavelength of […] was used to correct for nonspecific background.

5′-GCUGUUUAUUGGUAUGAUU-3′ (listed as RNA, chemistry not given here) [ΔCUGBP1]
COX-2 level [1]: uninfluenced | mPGES-1 protein expression ([2]; Western blot): strongly upregulated | mPGES-1 3′UTR isoform expression ([2]; qRT-PCR): further increases | mPGES-1 mRNA expression ([2]; qRT-PCR): significantly upregulates | IL1β-induced cell proliferation of A549 cells [3]: enhanced
